Where only a bound is given, the exact number is not on record here.

This is an account of results in publication PMC9318133 (International Journal of Molecular Sciences, 2022).

Data set [1] concerns fEPSP of CA1 area of mouse hippocampal slice. The data set can be described thus: Electrophysiological recording of fEPSP in hippocampal slices. The format is cell-based. Particulars: for fEPSP slope, % changes compared to control condition: steady state. As to the method:
Procedures for tissue preparation are the same as those described by Ossato et al., 2016 [45]. In brief, after mouse decapitation, the head was immediately chilled in refrigerated artificial cerebrospinal fluid (aCSF, 0 °C) of the following composition (in mM): NaCl, 126; KCl, 2; KH2PO4, 1.25; NaHCO3, 26; MgSO4, 2.0; CaCl2, 2.5; d-glucose, 10. After 1 min, the brain was extracted to isolate the hippocampus and then placed in ice-cold artificial cerebrospinal fluid (aCSF). All solutions were saturated with 95% O2/5% CO2. Transverse hippocampal slices (425 μm thick) were cut with a tissue chopper and then placed for almost 90 min in a Haas-style incubation chamber for recovery before recording.
A single slice was transferred into a submerged-type recording chamber (3 mL total volume) and continuously superfused (3.0 mL/min) with warmed (32–33 °C) aCSF. WINLTP 2.10 computer software was used for stimulus triggering, PC recording, and analysis. Synaptic responses of CA1 pyramidal neurons were elicited by electrical stimulation of the Schaffer collateral/commissural pathway. Single stimulation pulses (80 µs duration; 0.05 Hz) were delivered by mean of a concentric bipolar electrode (o.d. 125 μm, FHC, USA) connected to a Grass S11 stimulator driving a PSIU6 constant current stimulus isolation unit. To record the fEPSPs, borosilicate glass electrodes fabricated using a microelectrode puller (P97, Sutter Instruments) and filled with aCSF (1.5 ± 0.5 MΩ), inserted in the distal third of the stratum radiatum and 200–300 µm away from stimulating electrodes, were used. The maximal fEPSPs response was reached by adjusting the recording electrode depth. Recorded potentials were amplified (Axoprobe 1A DC-coupled—Cyberamp 320, Molecular Devices, Sunnyvale, CA, USA) and filtered (5.0 kHz) prior to A/D conversion. Upon 10 min of stable synaptic response, a stimulus–response curve (SRC) was generated as previously described to extrapolate a stimulation intensity evoking 70% of maximal fEPSP, to be used throughout the experiment. […] To investigate whether the vehicle had any effect on synaptic activity, the superfusion inlet was switched to a reservoir containing aCSF plus the amount of vehicle present for the corresponding drug concentration (sham application), before switching to the solution also including the drug, for comparison. All reservoirs and tubing were on glass or Teflon to avoid the capturing of cannabinoids by plastic or silicon parts.
We analyzed data from in vitro recordings as previously described. […] Effect of treatment was considered steady state when stable +/− 5% for 10 min.

The nature of data set [2]: Plasma (and brain) levels of JWH-175 and JWH-018 in mice by LC-MS/MS. The class given is in vivo, mouse. As to conditions: for presence in the brain tissue of mice systemically treated with JWH-175: data not shown. As to the method: For the in vivo studies, three different groups of mice were selected. […] Urine specimens were collected from mice individually placed inside metabolic cages (Ugo Basile SRL, Gemonio (VA), Italy) with free access to water and food. The same dose of JWH-175 was administered to the second group, and behavioral tests were performed before the blood collection. Tests and sampling were carried out, at 0, 30, 60, and 300 min, on a sub-group of six mice at each time interval. The same behavioral studies and blood sampling were performed on the third group, to which JWH-018 (10 mg/kg) was injected. Blood samples (mean total volume: 500 μL) were collected by submandibular blood collection technique into 1 mL vials containing EDTA (4 mg/mL of blood) as preservative and anticoagulant. After each blood withdrawal, an equal volume of saline solution was subcutaneously injected into mice to maintain volume and osmotic homeostasis. Plasma from collected blood and urine samples were stocked at −20 °C until the analysis.
For blood metabolic profile, samples were centrifugated at 9000× g rpm for 8 min to obtain plasma. Then, 200 µL of the supernatant was added to 500 μL of acetonitrile and centrifugated at 13,000× g rpm for 3 min. The aqueous layer was then collected and added to 50 μL of internal standard solution (10 μg/mL) and 500 μL of phosphate buffer (0.8 M, pH 7.4). Samples were then incubated for 1 h at 55 °C. After hydrolysis, samples were extracted with 5 mL of ethyl acetate. The organic solvent was then dried under nitrogen flow at 40 °C, and the dry residue was resolved in 50 μL of mobile phase and an aliquot of 10 µL was injected into the LC-MS systems.
Samples were analyzed using an Agilent 1200 series high-performance liquid chromatography (HPLC) instrument equipped with a SUPELCO C18 column (15 cm × 2.1 mm × 5 µm) coupled with a Sciex 5500QTRAP triple quadrupole mass spectrometer (Sciex, Milan, Italy) with an ESI source operated in positive ionization mode. Analyses were carried out at a constant flow rate of 250 µL/min using ultra-purified water, 0.1% formic acid (A), and acetonitrile 0.1% formic acid (B) as mobile phase. The gradient started at 5% eluent B, was increased to 65% eluent B in 7 min and after 4 min to 95% eluent B in 2 min, held for 4.5 min, decreased to starting conditions of 5% eluent B in 0.31 min, and held for 2 min for re-equilibration
Multiple reaction monitoring (MRM) was used as the acquisition mode (see Table 3). The MRM method was optimized starting from the protocol employed in our laboratory.

The target in another data set is T1, human CB1 receptors (Homo sapiens, UniProt P21554).
T1 construct: host or cells: CHO cells
The data set can be described thus: [3H]-CP-55,940 competition binding, CHO cell membranes transfected with human CB1 receptors. As for the experimental part:
To obtain membranes, cells were washed with phosphate-buffered saline (PBS) and scraped off with ice-cold hypotonic buffer (5 mM Tris HCl, 2 mM EDTA, pH 7.4). The cell suspension was homogenized with a Polytron and then centrifuged for 30 min at 40,000× g. The membrane pellet was suspended in 50 mM Tris HCl buffer (pH 7.4) containing 2.5 mM ethylenediaminetetraacetic acid (EDTA), 5 mM MgCl2, and 0.5 mg/mL bovine serum albumin (BSA) for CB1 receptors or in 50 mM Tris HCl (pH 7.4), 1 mM EDTA, 5 mM MgCl2, and 0.5% BSA for CB2 receptors.
For human cannabinoid receptors, membranes obtained from CHO cells transfected with human CB1 or CB2 receptors (2 µg protein/100 µL) were used. Competition binding experiments at murine cannabinoid receptors were performed with mouse brain membranes (40 µg protein/100 µL) or with mouse spleen membranes (80 µg protein/100 µL) for CB1 receptors or CB2 receptors, respectively. […] Bound and free radioactivity were separated by filtering the assay mixture through Whatman GF/C glass fiber filters using a Brandel cell harvester (Brandel Instruments, Unterföhring, Germany).
The protein concentration was determined according to a Bio-Rad method with bovine serum albumin as a reference standard. Inhibitory binding constants, Ki, were calculated from the IC50 values according to the Cheng and Prusoff equation:Ki = IC50/(1 + [C*]/KD*) where [C*] is the concentration of the radioligand and KD* its dissociation constant. Functional experiments were analyzed by non-linear regression analysis using the equation for a sigmoid concentration–response curve (GraphPad Prism, San Diego, CA, USA). All the data are expressed as the mean ± SEM of three independent experiments.

T1 sequence (P21554 whole entry): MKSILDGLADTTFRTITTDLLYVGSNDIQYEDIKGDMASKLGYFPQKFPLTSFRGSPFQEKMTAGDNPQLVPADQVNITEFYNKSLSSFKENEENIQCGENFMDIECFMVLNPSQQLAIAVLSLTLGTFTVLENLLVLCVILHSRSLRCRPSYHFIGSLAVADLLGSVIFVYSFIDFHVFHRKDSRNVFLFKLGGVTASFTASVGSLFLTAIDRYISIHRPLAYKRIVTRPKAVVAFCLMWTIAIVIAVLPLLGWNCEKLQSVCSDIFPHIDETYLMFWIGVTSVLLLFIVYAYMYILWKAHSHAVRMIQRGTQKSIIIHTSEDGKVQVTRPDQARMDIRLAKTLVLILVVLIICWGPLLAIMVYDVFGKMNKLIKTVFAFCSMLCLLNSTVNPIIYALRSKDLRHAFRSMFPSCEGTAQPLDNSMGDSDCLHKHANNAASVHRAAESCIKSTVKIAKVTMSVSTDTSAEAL

The term Ki denotes a dissociation constant, usually derived from enzyme kinetics or from competition with a known ligand. Lower therefore signals a stronger hold on the target. `CCCCCn1cc(Cc2cccc3ccccc23)c2ccccc21` [JWH-175, 3-(1-naphthalenylmethyl)-1-pentyl-1H-indole]: the “fEPSP slope, % changes compared to control condition” value in data set [1] (1 µM, last 3 min of recording) is on record as −23.7 ± 5.7%. The “effect on fEPSP” value in data set [1] (0.01−0.3 µM) is listed as “failed to affect fEPSP”. In data set [1] (CA1 hippocampal slices, 0.01–1 µM), the “times less potent than JWH-018 in inhibiting fEPSP” value is given as “about 10 times”. Besides, the “time after administration within which JWH-175 itself was detected in plasma” value in data set [2] (JWH-175 10 mg/kg i.p., mouse plasma) is given as not above 30 min. Also, in data set [2], the “presence in the brain tissue of mice systemically treated with JWH-175” value is recorded as “only traces”. On human CB1 receptors, this compound returned an inhibition constant Ki of 25.8 ± 1.9 nM.

Regarding `CCCCCn1cc(C(=O)c2cccc3ccccc23)c2ccccc21` [JWH-018, 1-naphthalenyl(1-pentyl-1H-indol-3-yl)-methanone], the “fEPSP slope, % changes compared to control condition” value in data set [1] (0.1 µM) is −34.7 ± 7.9%; in data set [1] (0.3 µM), −40.4 ± 8.4%; in data set [1] (1 µM, last 3 min of recording), −48.8 ± 7.6%. The “time of peak plasmatic concentration of JWH-018” value in data set [2] (JWH-018 10 mg/kg i.p., mouse plasma) stood at 30 min. Moreover, the “presence in the brain tissue of mice systemically treated with JWH-175” value in data set [2] was “presence”. The “selectivity index (ratio between the Ki value to human CB2 and the Ki value to human CB1)” value on human CB1 receptors (human CB2 / human CB1) was found to be 0.9. In addition, the “fold higher affinity than JWH-175 at human CB1 receptors” value at human CB1 receptors (ratio of Ki values, CHO cell membranes) was determined as 2.71 fold.
